The values below come from publication PMC9513850, “Receptor-binding domain-anchored peptides block binding of severe acute respiratory syndrome coronavirus 2 spike proteins with cell surface angiotensin-converting enzyme 2” (Frontiers in Microbiology, 2022).

The subject of test [1] is S-trimer-ACE2 binding, 293T-ACE2hR cells. Type of test: cell-based, SARS-CoV-2 (S-trimer); human (hACE2). Particulars: for blocking of S-trimer binding onto 293T-ACE2hR cells: 50 μM peptide vs. 0.001 μM S-trimer (50,000-fold), p < 0.05 mark vs. vehicle, Student's t-test; for blocking of S-trimer binding onto 293T-ACE2hR cells / blocking of S-trimer binding onto 293T-ACE2hR cells, lower concentrations: premix 1 h, then 1 h on cells, room temperature, HRP anti-6X His tag, TMB, OD370 nm; for blocking of S-trimer binding onto 293T-ACE2hR cells, lower concentrations: 10 μM peptide and below, S-trimer 0.001 μM; for behaviour of C2 and C6 in the competition assay: Figure 3.

Test [2] has as its system S-RBD proteins. Set-up: method as in Zhang et al., 2020. Particulars: bio-layer interferometry; ref Zhang et al., 2020; cited from earlier work.
Test [3] relates to cell surface S-RBD proteins. Set-up: method as in Zhang et al., 2020. Particulars: ref Zhang et al., 2020; cited from earlier work.
Test [4] concerns ACE2 binding onto S-RBD proteins. Set-up: method as in Zhang et al., 2020. Particulars: ref Zhang et al., 2020; cited from earlier work.
The test system of test [5] is recombinant SARS-CoV-2 S-RBD. Description: Phage display (PhD-12) panning against S-RBD. Type of test: binding. Particulars: phage-displayed sequence, after panning against S-RBD.
For test [6], the system named is S-trimer-ACE2 binding, recombinant ACE2 proteins. Description: Blocking of S-trimer binding onto recombinant ACE2 (ELISA). Set-up: species or system SARS-CoV-2 (S-trimer). Conditions: ACE2 coated 5 μg/ml, S-trimer 0.01 μM premixed with 0.5, 1.65 and 5 μM peptide (up to 500:1). As to the method:
Then, 293T-ACE2hR cells were substituted by recombinant ACE2 proteins and coated onto ELISA plates in the other measurement setting. In brief, recombinant ACE2 proteins (Novoprotein) were immobilized overnight at room temperature on ELISA plates at a 5 μg/ml concentration in 0.1 M NaHCO3, pH 9.6. The plates were then blocked with 10% fetal calf serum for 2 h and washed with tris-buffered saline solution containing 0.1% Tween-20 [[…] (PBST) buffer]. […] The following procedures were described above for the 293T-ACE2hR cells setting.
FIGURE 3 The potential blocking effect of peptides on the binding of S-trimer onto cellular or soluble angiotensin-converting enzyme 2 (ACE2). […] The peptide SBP1 was used as a positive and peptide SBP2 as the negative control. *p < 0.05, vs. vehicle, all by Student’s t-test.

Test [7] has as its system recombinant SARS-CoV-2 S-trimer proteins. Description: Phage display (PhD-12) panning against S-trimer. Type of test: binding. Particulars: phage-displayed sequence, after panning against S-trimer.

“Also recorded” adds a separate entry of the source.

Take IEEQAKTFLDKFNHEAEDLFYQSK [SBP1]: the “blocking of S-trimer binding onto 293T-ACE2hR cells” value in test [1] is “still not for SBP1 or SBP2 peptides”. In addition, the “association with S-RBD proteins” value in test [2] is “at the level of micromolar scales”. Besides, in test [3], the “association with cell surface S-RBD proteins” value is recorded as “neither associated with cell surface S-RBD proteins”. In addition, in test [4], the “competition with ACE2 binding onto S-RBD” value is reported as “nor did they outcompete ACE2 binding onto S-RBD proteins”.

Regarding TFLDKFNHEAED [SBP2, reference compound], in test [1], the “blocking of S-trimer binding onto 293T-ACE2hR cells” value is listed as “still not for SBP1 or SBP2 peptides”.

For the sequence HWKAVNWLKPWT [C6], in test [5], the “enrichment by S-RBD” value was “enriched by S-RBD”. Besides, in test [1], the “blocking of S-trimer binding onto 293T-ACE2hR cells, lower concentrations” value was “not at lower concentrations (10 μM and below)”; the “blocking of S-trimer binding onto 293T-ACE2hR cells” value is “inhibited S-trimer binding onto 293T-ACE2hR cells at high concentrations (50 μM); also recorded: a blocking effect was observed for C2 and C6”; the “behaviour of C2 and C6 in the competition assay” value is “C2 and C6 behaved similarly in the competition assay”. Also, the “blocking of S-trimer binding onto recombinant ACE2” value in test [6] is on record as “neither for the settings of S-trimer binding onto recombinant ACE2 proteins; also recorded: Failure of 500-fold overdose of C2 or C6 peptides to block S-trimers binding with their receptors”.

With DHAQRYGAGHSG [C2], the “enrichment by S-RBD” value in test [5] is “enriched by S-RBD”. In addition, the “enrichment by S-trimer” value in test [7] is recorded as “only C2 was present in S-trimer selected phages”. Besides, in test [1], the “blocking of S-trimer binding onto 293T-ACE2hR cells, lower concentrations” value is “not at lower concentrations (10 μM and below)”; the “blocking of S-trimer binding onto 293T-ACE2hR cells” value was “inhibited S-trimer binding onto 293T-ACE2hR cells at high concentrations (50 μM); also recorded: a blocking effect was observed for C2 and C6”; the “behaviour of C2 and C6 in the competition assay” value was “C2 and C6 behaved similarly in the competition assay”. For the same sequence, the “blocking of S-trimer binding onto recombinant ACE2” value in test [6] is “neither for the settings of S-trimer binding onto recombinant ACE2 proteins; also recorded: Failure of 500-fold overdose of C2 or C6 peptides to block S-trimers binding with their receptors”.
